Reference: patent publication US20180193294A1, “Dehydroabietic acid (DHAA) derivatives for use as ion channel openers” (priority 2015, published 2018)

Tests used:
[1] = test system: dorsal root ganglion (DRG) neurons; experiment: Resting membrane potential of DRG neurons, whole-cell current clamp; assay type: cell-based, mice; conditions: 10 μM, pH 7.4, 120 s application
Method: All animal experiments were approved by the local Animal Care and Use Committee and followed international guidelines. Five female 7-12 week-old C57BL/6 mice (Scanbur) were used for this study. The mice were anaesthetized with isoflurane and decapitated. Dorsal root ganglia (DRG) were dissected from all spinal levels and enzymatically digested with collagenase (250 CDU/ml) for 15 min, and then trypsin (1 mg/ml) was added for another 30 min. The ganglia were centrifuged and resuspended in Leibovitz L-15 media with glutamine, supplemented with 10% fetal calf serum, 38 mM glucose, 24 mM NaHCO3 and penicillin/streptomycin. The ganglia were triturated and the DRG neurons plated on poly-D-lysine coated plastic coverslips. The neurons were cultured at 37° C. with 5% CO2 for 2-3 days before the electrophysiological recordings.
All manual electrophysiological recordings were performed at room temperature (20-23° C.), using a GeneClamp 500B amplifier (for oocytes) or a Axopatch 200B amplifier (for manual patch clamp of CHO—K1 cells and DRG neurons) and a Digidata 1440A digitizer and pClamp 10 software (all from Molecular Devices, Inc., Sunnyvale, Calif., USA). Compounds were dissolved to 100 mM in 99.5% EtOH and stored at −20° C. Compounds were diluted in extracellular solution to the desired test concentration.
CHO—K1 Cells were plated on coverslips 2 h before the manual electrophysiological recordings. Coverslips with CHO—K1 cells or DRG neurons were placed in a recording chamber and perfused with extracellular solution by a gravity-fed perfusion system. Substances were applied by a pressurized, automated OctaFlow perfusion system (ALA Scientific Instruments). The signals were sampled at 5-20 kHz after low-pass filtering at 2-5 kHz. For CHO—K1 cells the intracellular solution contained (in mM): 120 K-gluconate, 10 KCl, 5 EGTA, 10 HEPES, 4 Mg-ATP, 0.3 Na-GTP, pH 7.3; the extracellular solution contained (in mM): 135 NaCl, 4 KCl, 10 HEPES, 1 MgCl2, 1.8 CaCl2, 10 glucose, pH 7.4. Currents were evoked in CHO—K1 cells in whole-cell voltage-clamp mode from a holding potential of −80 mV by 100-ms long, 10-mV steps ranging from −80 to +80 mV.
For DRG neurons the intracellular solution contained (in mM): 120 K-gluconate, 10 KCl, 1 EGTA, 10 HEPES, 4 Mg-ATP, 0.3 Na-GTP, pH 7.3; the extracellular solution contained (in mM): 144 NaCl, 2.5 KCl, 10 HEPES, 0.5 MgCl2, 2 CaCl2, 10 glucose, pH 7.4. A liquid-junction potential of approximately −14 mV was corrected for. […] Small and medium sized DRG neurons were selected for whole-cell current-clamp recording. 10 μM of the compounds were applied for 120 s to study the effect on the resting membrane potential, and for 45-120 s to study the effects on evoked action potentials. To evoke action potentials 800-ms depolarizing pulses
The compound effect on the resting membrane potential Vm was determined by subtracting the control pre-compound Vm from the Vm at the end of the 120 s application of test compound.

3R Shaker K channel = 3R Shaker K channel (Drosophila melanogaster, UniProt P08510, A359R/M356R); experiment: physchem; assay type: cell-based; conditions: Table 1; 100 μM, pH 7.4, Xenopus oocytes
3R Shaker K channel, sequence (P08510 whole entry M356R/A359R): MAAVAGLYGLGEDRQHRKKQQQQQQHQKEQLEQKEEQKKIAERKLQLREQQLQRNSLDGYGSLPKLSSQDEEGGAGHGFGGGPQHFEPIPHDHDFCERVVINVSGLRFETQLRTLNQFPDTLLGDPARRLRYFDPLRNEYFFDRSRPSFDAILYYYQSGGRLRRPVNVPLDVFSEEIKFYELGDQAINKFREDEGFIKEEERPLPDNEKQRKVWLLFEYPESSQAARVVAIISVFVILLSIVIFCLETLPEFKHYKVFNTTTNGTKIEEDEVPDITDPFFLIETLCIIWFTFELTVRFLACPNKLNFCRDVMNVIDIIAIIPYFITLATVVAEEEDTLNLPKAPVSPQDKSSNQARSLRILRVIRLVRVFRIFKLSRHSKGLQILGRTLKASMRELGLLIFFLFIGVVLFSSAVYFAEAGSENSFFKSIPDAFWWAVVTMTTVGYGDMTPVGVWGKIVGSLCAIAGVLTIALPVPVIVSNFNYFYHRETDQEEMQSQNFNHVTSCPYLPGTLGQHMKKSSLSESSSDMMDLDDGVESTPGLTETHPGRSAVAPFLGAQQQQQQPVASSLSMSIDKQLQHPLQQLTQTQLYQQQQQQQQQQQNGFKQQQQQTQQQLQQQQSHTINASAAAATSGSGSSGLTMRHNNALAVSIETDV
Method in brief: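 Two-electrode voltage clamp at 20-23° C. in oocytes (also CHO-K1 stable line, manual patch clamp) expressing Shaker H4 lacking N-type inactivation; 1K extracellular solution, pH 7.4, holding −80 mV, 100-ms 5-mV steps up to +70 mV. Compound-induced G(V) shift taken at 10% of control Gmax (oocytes) or as V1/2 difference (CHO-K1).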

Row | Compound | shift of the resting membrane potential (ΔVm) [1] | G(V) shift (3R Shaker K channel) [mV]
1 | CO/N=C1\CC2[C@](C)(C(=O)O)CCC[C@]2(C)c2ccc(C(C)C)c(Br)c21 (stereo partly drawn) [Wu74, (1R,4aS,E)-8-bromo-7-isopropyl-9-(methoxyimino)-1,4a-dimethyl-1,2,3,4,4a,9,10,10a-octahydrophenanthrene-1-carboxylic acid] | intermediately potent hyperpolarizers | −14.7
2 | CC(C)c1cc2c(cc1Cl)[C@@]1(C)CCC[C@@](C)(C(=O)O)C1CC2 (stereo partly drawn) [Wu13, (1R,4aS)-6-chloro-7-isopropyl-1,4a-dimethyl-1,2,3,4,4a,9,10,10a-octahydrophenanthrene-1-carboxylic acid] | most potent compounds on the DRG neurons | −15.8
3 | C=CCO/N=C1\CC2[C@](C)(C(=O)O)CCC[C@]2(C)c2cc(Cl)c(C(C)C)cc21 (stereo partly drawn) [Wu23, (1R,4aS,E)-9-((allyloxy)imino)-6-chloro-7-isopropyl-1,4a-dimethyl-1,2,3,4,4a,9,10,10a-octahydrophenanthrene-1-carboxylic acid] | intermediately potent hyperpolarizers | −26.7
